# Results from US9695155B2, “Herbicidal substituted pyrimidinyloxy benzene compounds” (E. I. DU PONT DE NEMOURS AND COMPANY, priority 2013, dated 2017).
# Key:
# [1] = test system: yellow nutsedge; experiment: Test C postemergence; format: in vivo, Cyperus esculentus
# Summary of the method: (§1)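 Greenhouse herbicide screen. Pre: seeded loam/sand, sprayed at planting. Post: 1–4 leaf plants (2–18 cm) in peat-based mix. Formulation: solvent mixture + surfactant, non-phytotoxic. Readout: visual % control vs untreated, 13–15 d; dash = not tested.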
# [2] = test system: Heteranthera limosa; experiment: Test B flooded paddy test; format: in vivo; conditions: Flood, 250 g ai/ha, 0 to 100 scale where 0 is no effect and 100 is complete control
# Summary of the method: (§2)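 Visual ratings on a 0 to 100 scale, where 100 means complete control, compared treated plants with controls after 13 to 15 days in a greenhouse. Treatment went into paddy water 3 cm deep over the soil, applied to plants at the 2-leaf stage.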
# [3] = test system: soybean; experiment: Test C postemergence; format: in vivo, Glycine max
# Summary of the method: as §1
# [4] = test system: giant foxtail; experiment: Test C postemergence; format: in vivo, Setaria faberii
# Summary of the method: as §1
# [5] = test system: ragweed; experiment: Test C postemergence; format: in vivo, Ambrosia elatior
# Description: Seeds of plant species selected from blackgrass (Alopecurus myosuroides), Italian ryegrass (Lolium multiflorum), wheat, winter (winter wheat, Triticum aestivum), galium (catchweed bedstraw, Galium aparine), corn (Zea mays), large (Lg) crabgrass (Digitaria sanguinalis), giant foxtail (Setaria faberii), johnsongrass (Sorghum halepense), lambsquarters (Chenopodium album), morningglory (Ipomoea coccinea), yellow nutsedge (Cyperus esculentus), pigweed (Amaranthus retroflexus), ragweed (common ragweed, Ambrosia elatior), soybean (Glycine max), barnyardgrass (Echinochloa crus-galli), oilseed rape (Brassica napus), waterhemp (common waterhemp, Amaranthus rudis), kochia (Kochia scoparia), wild oat (Avena fatua), surinam grass (Brachiaria decumbens), foxtail, green (green foxtail, Setaria viridis), goosegrass (Eleusine indica), bromegrass, downy (downy bromegrass, Bromus tectorum), nightshade (eastern black nightshade, Solanum ptycanthum), cocklebur (common cocklebur, Xanthium strumarium), cupgrass, woolly (woolly cupgrass, Eriochloa villosa), bermudagrass (Cynodon dactylon), sunflower, (common oilseed sunflower, Helianthus annuus), Russian thistle (Salsola kali), and velvetleaf (Abutilon theophrasti) were planted into a blend of loam soil and sand and treated preemergence with test chemicals formulated in a non-phytotoxic solvent mixture which included a surfactant.
# At the same time, plants selected from these crop and weed species and also barley, winter (winter barley, Hordeum vulgare), windgrass (Apera spica-venti), chickweed (common chickweed, Stellaria media), deadnettle (henbit deadnettle, Lamium amplexicaule), and canarygrass (littleseed canarygrass, Phalaris minor) were planted in pots containing Redi-Earth® planting medium (Scotts Company, 14111 Scottslawn Road, Marysville, Ohio 43041) comprising spaghnum peat moss, vermiculite, wetting agent and starter nutrients and treated with postemergence applications of test chemicals formulated in the same manner. Plants ranged in height from 2 to 18 cm (1- to 4-leaf stage) for postemergence treatments. Treated plants and controls were maintained in a greenhouse for 13 to 15 days, after which time all species were compared to controls and visually evaluated. Plant response ratings, summarized in Table C, are based on a scale of 0 to 100 where 0 is no effect and 100 is complete control. A dash (-) response means no test result.
# [6] = test system: sedge, umbrella; experiment: Test B flooded paddy test; format: in vivo, Cyperus difformis; conditions: Flood, 250 g ai/ha, 0 to 100 scale where 0 is no effect and 100 is complete control
# Summary of the method: as §2
# [7] = test system: rice; experiment: Test B flooded paddy test; format: in vivo, Oryza sativa; conditions: Flood, 250 g ai/ha, 0 to 100 scale where 0 is no effect and 100 is complete control
# Summary of the method: as §2
# [8] = test system: corn; experiment: Test C postemergence; format: in vivo, Zea mays
# Summary of the method: as §1
# [9] = test system: barnyardgrass; experiment: Test A postemergence; format: in vivo, Echinochloa crus-galli
# Summary of the method: (§3)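 Visual 0–100 rating (100 = complete control) taken about 10 d post-treatment relative to untreated checks. Preemergence: directed soil spray on sown loam/sand pots. Postemergence: seedlings 2–10 cm, 1–2 leaf. Non-phytotoxic solvent formulation with surfactant.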
# [10] = test system: barnyardgrass; experiment: Test B flooded paddy test; format: in vivo, Echinochloa crus-galli; conditions: Flood, 250 g ai/ha, 0 to 100 scale where 0 is no effect and 100 is complete control
# Summary of the method: as §2
# [11] = test system: morningglory; experiment: Test C postemergence; format: in vivo, Ipomoea coccinea
# Summary of the method: as §1
# [12] = test system: wheat; experiment: Test A postemergence; format: in vivo, Triticum aestivum
# Summary of the method: as §3
# [13] = test system: wheat, winter; experiment: Test C postemergence; format: in vivo, Triticum aestivum
# Summary of the method: as §1
# [14] = Postemergence, 31 g ai/ha, scale 0 to 100 (0 no effect, 100 complete control), 13 to 15 days
# [15] = Postemergence, 62 g ai/ha, scale 0 to 100 (0 no effect, 100 complete control)
# [16] = 16 g ai/ha, postemergence, visual rating, scale 0 to 100 (0 no effect, 100 complete control), 13 to 15 days
# [17] = 125 g ai/ha, 0 to 100 scale where 0 is no effect and 100 is complete control
# [18] = 500 g ai/ha, 0 to 100 scale where 0 is no effect and 100 is complete control
compound,measurement,setting,value
"Fc1cccc(Oc2ncc(Cl)cn2)c1-n1cc(C(F)F)nn1 [Compound 141, 5-chloro-2-[2-[4-(difluoromethyl)-1H-1,2,3-triazol-1-yl]-3-fluorophenoxy]pyrimidine]",pest or weed control at 16 g/ha,"[1]; Cyperus, post-emergence, 16 g ai/ha, postemergence, 0 is no effect, 100 is complete control, read-out: Plant response rating (0 to 100), Nutsedge, Yellow",10%
same,pest or weed control at 125 g/ha,"[1]; Cyperus, post-emergence, 125 g ai/ha, postemergence, visual rating, scale 0 to 100 (0 no effect, 100 complete control), read-out: Plant response rating, Nutsedge, Yellow",15%
same,pest or weed control at 62 g/ha,"[1]; Cyperus, post-emergence, Postemergence, 62 g ai/ha, scale 0 to 100 (0 no effect, 100 complete control), read-out: Plant response rating, Nutsedge, Yellow",15%
same,pest or weed control at 250 g/ha,"[2]; Heteranthera limosa, read-out: Plant response rating, Ducksalad",100%
same,"Soybean plant response rating (crop injury, 0-100 scale) at 16 g/ha","[3]; Glycine max, post-emergence, 16 g ai/ha, postemergence, 0 is no effect, 100 is complete control",85%
same,"Soybean plant response rating (crop injury, 0-100 scale) at 125 g/ha","[3]; Glycine max, post-emergence, 125 g ai/ha, postemergence, visual rating, scale 0 to 100 (0 no effect, 100 complete control), read-out: Plant response rating, Soybean",95%
same,"Soybean plant response rating (crop injury, 0-100 scale) at 62 g/ha","[3]; Glycine max, post-emergence, Postemergence, 62 g ai/ha, scale 0 to 100 (0 no effect, 100 complete control)",90%
same,pest or weed control at 16 g/ha,"[4]; Setaria faberi, post-emergence, 16 g ai/ha, postemergence, 0 is no effect, 100 is complete control, read-out: Plant response rating (0 to 100), Foxtail, Giant",10%
same,pest or weed control at 125 g/ha,"[4]; Setaria faberi, post-emergence, 125 g ai/ha, postemergence, visual rating, scale 0 to 100 (0 no effect, 100 complete control), read-out: Plant response rating, Foxtail, Giant",70%
same,pest or weed control at 62 g/ha,"[4]; Setaria faberi, post-emergence, Postemergence, 62 g ai/ha, scale 0 to 100 (0 no effect, 100 complete control), read-out: Plant response rating, Foxtail, Giant",45%
same,pest or weed control at 16 g/ha,"[5]; Ambrosia artemisiifolia, post-emergence, 16 g ai/ha, postemergence, 0 is no effect, 100 is complete control, read-out: Plant response rating (0 to 100), Ragweed",80%
same,pest or weed control at 125 g/ha,"[5]; Ambrosia artemisiifolia, post-emergence, 125 g ai/ha, postemergence, visual rating, scale 0 to 100 (0 no effect, 100 complete control), read-out: Plant response rating, Ragweed",90%
same,pest or weed control at 62 g/ha,"[5]; Ambrosia artemisiifolia, post-emergence, Postemergence, 62 g ai/ha, scale 0 to 100 (0 no effect, 100 complete control), read-out: Plant response rating, Ragweed",98%
same,pest or weed control at 250 g/ha,"[6]; Cyperus difformis, read-out: Plant response rating, Sedge, Umbrella",90%
same,plant injury at 250 g/ha,"[7]; Oryza sativa, read-out: Plant response rating, Rice",45%
same,plant injury at 16 g/ha,"[8]; Zea mays, post-emergence, 16 g ai/ha, postemergence, 0 is no effect, 100 is complete control, read-out: Plant response rating (0 to 100), Corn",5%
same,"Corn plant response rating (crop injury, 0 = no effect, 100 = complete kill) at 125 g/ha","[8]; Zea mays, post-emergence, 125 g ai/ha, postemergence, visual rating, scale 0 to 100 (0 no effect, 100 complete control)",20%
same,"Corn plant response rating (crop injury, 0 = no effect, 100 = complete kill) at 62 g/ha","[8]; Zea mays, post-emergence, Postemergence, 62 g ai/ha, scale 0 to 100 (0 no effect, 100 complete control)",5%
same,pest or weed control at 31 g/ha,"[9]; Echinochloa crus-galli, post-emergence, 240 h, 31 g ai/ha, 0 to 100 scale, 0 no effect, 100 complete control, read-out: Plant response rating, Barnyardgrass",60%
same,pest or weed control at 125 g/ha,"[9]; Echinochloa crus-galli, post-emergence, 240 h, 125 g ai/ha, 0 to 100 scale where 0 is no effect and 100 is complete control, read-out: Barnyardgrass plant response rating",100%
same,pest or weed control at 250 g/ha,"[10]; Echinochloa crus-galli, read-out: Plant response rating, Barnyardgrass",100%
same,pest or weed control at 16 g/ha,"[11]; Ipomoea, post-emergence, 16 g ai/ha, postemergence, 0 is no effect, 100 is complete control, read-out: Plant response rating (0 to 100), Morningglory",85%
same,pest or weed control at 125 g/ha,"[11]; Ipomoea, post-emergence, 125 g ai/ha, postemergence, visual rating, scale 0 to 100 (0 no effect, 100 complete control), read-out: Plant response rating, Morningglory",100%
same,pest or weed control at 62 g/ha,"[11]; Ipomoea, post-emergence, Postemergence, 62 g ai/ha, scale 0 to 100 (0 no effect, 100 complete control), read-out: Plant response rating, Morningglory",95%
same,plant injury at 31 g/ha,"[12]; Triticum aestivum, post-emergence, 240 h, 31 g ai/ha, 0 to 100 scale, 0 no effect, 100 complete control, read-out: Plant response rating, Wheat",10%
same,plant injury at 125 g/ha,"[12]; Triticum aestivum, post-emergence, 240 h, 125 g ai/ha, 0 to 100 scale where 0 is no effect and 100 is complete control, read-out: Wheat plant response rating",80%
same,plant injury at 16 g/ha,"[13]; Triticum aestivum, post-emergence, 16 g ai/ha, postemergence, 0 is no effect, 100 is complete control, read-out: Plant response rating (0 to 100), Wheat",0%
same,plant injury at 125 g/ha,"[13]; Triticum aestivum, post-emergence, 125 g ai/ha, postemergence, visual rating, scale 0 to 100 (0 no effect, 100 complete control), read-out: Plant response rating, Wheat",25%
same,plant injury at 62 g/ha,"[13]; Triticum aestivum, post-emergence, Postemergence, 62 g ai/ha, scale 0 to 100 (0 no effect, 100 complete control), read-out: Plant response rating, Wheat",5%
Cc1cnc(Oc2cccc(C#N)c2-n2cc(C#N)cn2)nc1 [Compound 90],"Plant response rating (0 to 100), Nutsedge, Yellow","[1]; 125 g ai/ha, postemergence",10
same,"Plant response rating, Nutsedge, Yellow",[1]; [14],5
same,"Plant response rating, Nutsedge, Yellow",[1]; [15],10
same,"Plant response rating, Ducksalad",[2],40
same,"Plant response rating (0 to 100), Soybean","[3]; 125 g ai/ha, postemergence",60
same,"Plant response rating, Soybean",[3]; [14],65
same,"Plant response rating, Soybean",[3]; [15],75
same,"Foxtail, Giant plant response rating",[4]; [16],35
same,"Plant response rating (0 to 100), Foxtail, Giant","[4]; 125 g ai/ha, postemergence",20
same,"Plant response rating, Foxtail, Giant",[4]; [14],15
same,"Plant response rating, Foxtail, Giant",[4]; [15],20
same,"Plant response rating (0 to 100), Ragweed","[5]; 125 g ai/ha, postemergence",65
same,"Plant response rating, Ragweed",[5]; [14],40
same,"Plant response rating, Ragweed",[5]; [15],50
same,"Plant response rating, Sedge, Umbrella",[6],40
same,"Plant response rating, Rice",[7],0
same,Corn plant response rating,[8]; [16],0
same,"Plant response rating (0 to 100), Corn","[8]; 125 g ai/ha, postemergence",5
same,"Plant response rating, Corn",[8]; [14],5
same,"Plant response rating, Corn",[8]; [15],5
same,"Plant response rating, Barnyardgrass",[9]; [17],90
same,"Plant response rating, Barnyardgrass",[9]; [18],100
same,"Plant response rating, Barnyardgrass",[10],0
same,"Plant response rating (0 to 100), Morningglory","[11]; 125 g ai/ha, postemergence",85
same,"Plant response rating, Morningglory",[11]; [14],60
same,"Plant response rating, Morningglory",[11]; [15],75
same,"Plant response rating, Wheat",[12]; [17],0
same,"Plant response rating, Wheat",[12]; [18],50
same,"Plant response rating (0 to 100), Wheat","[13]; 125 g ai/ha, postemergence",0
same,"Plant response rating, Wheat",[13]; [14],0
same,"Plant response rating, Wheat",[13]; [15],0
